Measurements published in paper PMC12734371, “Synthesis, Anti-Tumour, and Antibacterial Activities of Monocarbonyl Curcumin Analogues of Piperidones” (International Journal of Molecular Sciences, 2025).

Columns and labels:
A549 cells [1] = assay: CCK-8 growth inhibition (dose and time action curves); format: cell-based, human; settings: different concentrations, 4-72 h
Experimental: A549 cells in the logarithmic growth phase and in a good growth state were collected. After routine digestion and centrifugation, the cells were diluted with DMEM low-glucose complete medium, suspended in a single cell state, and inoculated in 96-well plates. Each well was inoculated with 100 μL cell suspension containing 5 × 10^3 cells. The 96-well plate was shaken to disperse the cells evenly at the bottom of the cell orifice plate, and the cells were cultured in the cell incubator for 24 h. The old medium was discarded, complete medium containing different concentrations of liquid medicine was added, and the culture continued in the cell culture incubator. At 4, 6, 12, 24, 48, and 72 h, the old medium was discarded and 100 μL of medium containing 10% CCK-8 was added. The medium was placed in the cell incubator and continued to incubate for 2 h. The OD value was measured at 450 nm with an enzyme calibration and the inhibition rate of different compounds at different concentrations was calculated. GraphPad Prism 8.0 was used to plot the inhibition rate of cell growth at different concentrations of the five major compounds. The drug duration curves were plotted with time as the X-axis and inhibition rate as the Y-axis.

A549 cells [2] = assay: Cell wound scratch assay (migration); format: cell-based, human; settings: 6 h; high, medium, and low concentrations
Experimental: A549 cells in logarithmic phase were digested with 0.25% trypsin and blown to single cell suspension with a dropper. The cell density was adjusted to 5 × 10^5 cells/mL. The cells were inoculated on 6-well plates, 2 mL per well, and cultured in a cell incubator at 37 °C, 5% CO2, and saturated humidity for 24 h until the gaps were basically fused. A 10 μL micro pipette tip was used to scratch vertically in a 6-well plate. After washing with PBS solution 3 times, the drug-containing medium was added, 2 mL per well, and three wells were set in each group. The culture plates were placed in a 5% CO2 incubator at 37 °C for 6 h and 24 h and observed and photographed with an inverted fluorescence microscope. The images were obtained by NIS Elements Viewer 4.2.0, and the scratch area and width were calculated. The cell migration rate was calculated by Formula (2):[Cell migration rate (%) = (0 h scratch area − scratch area at different times)/0 h scratch area × 100%](2)

Hela cells = assay: MTT assay, inhibition of tumour cell growth; format: cell-based, human; settings: 24 h, mean ± s, n = 3
Experimental: (§1) The tumour cell suspension in logarithmic growth phase, containing about 5 × 10^3 cells, was taken and seeded onto a 96-well plate and gently shaken to disperse the cells evenly at the bottom of the plate. The cells were incubated in a constant temperature (37 °C) incubator for 24 h. The old medium was discarded, and 100 μL of the prepared working solution of piperidinone monocarbonyl curcumin analogues at different concentrations was added, and the cells were incubated in a constant temperature incubator for 24 h. Blank medium wells, blank cell wells, and 0.9% DMSO (highest content) wells were set up, with 6 multi-well and 3 multi-plates for each concentration. The discarded old medium was absorbed, and 100 μL of 10% 5 mg/mL MTT working solution was added to each well (operated away from light) and placed in a cell incubator for further incubation for 4 h. The old medium was discarded, and 100 μL of DMSO was added to each well and shaken in an air shaker at 100 RPM for 10 min. The absorbance of the OD value was measured at 490 nm by a multifunctional microplate analyzer. According to Formula (1), the inhibition rates of different piperidones monocarbonyl curcumin analograms on 4 tumour cells were calculated, and IC50 was calculated by GraphPad Prism 8.0:Inhibition rate (%) = (OD blank cell group − OD administration group)/OD blank cell group(1)

A549 cells [3] = assay: MTT assay, inhibition of tumour cell growth; format: cell-based, human; settings: 24 h, mean ± s
Experimental: as §1

HepG2 cells = assay: MTT assay, inhibition of tumour cell growth; format: cell-based, human; settings: 24 h, mean ± s, n = 3
Experimental: as §1

MCF-7 cells = assay: MTT assay, inhibition of tumour cell growth; format: cell-based, human; settings: 24 h, mean ± s, n = 3
Experimental: as §1

L02 cells = assay: MTT assay, toxicity to human normal liver cells; format: cell-based; settings: 24 h, mean ± s, n = 3
Experimental: The cells were passaged to the fourth generation of L02 cells, and the cell suspension containing about 5 × 10^3 cells was added to each well of the 96-well plate and cultured in a cell culture incubator for 24 h. The old medium was discarded, and different concentrations of liquid medicine (6 porous and 3 plates for each concentration) were added and incubated for 24 h. The old medium was discarded, 10% of 5 mg/mL MTT working solution was added in the dark, and the cells were incubated in a cell incubator for 4 h. The old medium was discarded, 100 μL DMSO was added to each well, and 100 RPM was oscillated on an air shaker for 10 min. The OD value was measured at 490 nm with a multifunctional microplate reader. According to the OD value, the inhibition rate of different piperidone monocarbonyl curcumin analogues on L02 cells was calculated according to Formula (1), and IC50 was calculated by Graph Pad Prism 8.0.

A549 cells [4] = assay: Flow cytometry apoptosis (Annexin V/PI); format: cell-based, human; settings: 24 h; 5, 2.5, 1.25 μmol/L
Experimental: The A549 cells in logarithmic growth phase were inoculated in 6-well plates at 1 × 10^6 cells. After resting in the incubator for 24 h, the cells were treated with different concentrations of drugs. The blank control group was added with the medium with the highest concentration of DMSO. After 24 h of culture, cells were collected, washed with PBS, transferred to a flow tube, and resuspended with 100 μL of 1 × Annexin V conjugate. Add 4 μL YF4/88-Annexin N and 5 μL PI working solution. The cells were incubated in the dark at room temperature for 10 min, transferred to a flow cytometer tube, added with 200 μL of 1 × Annexin V conjugate, and immediately detected by flow cytometry.

[5] = tested on: ERK (extracellular regulated protein kinases); assay: Western blot, ERK level in A549 cells; format: cell-based, human; settings: 10, 5, 2.5 μmol/L, 24 h
Experimental: (§2) A549 cells in logarithmic growth phase were seeded in 6-well plates at 1 × 10^6 cells/mL per well. The cells were cultured overnight in an incubator. Different concentrations of drug-containing medium of 2,5-2Cl, 2Br-5Cl, 2-Cl, 2-F, benzaldehyde ([…]), curcumin (20 μmol/L), and cisplatin (30 μmol/L) were added, and the blank control […] The RIPA cell lysis buffer containing protease inhibitors was added to the Petri dish to collect the proteins of each experimental group, and the supernatant was collected as a protein sample after ultrasonic centrifugation. Protein quantification was performed by the BCA method. A total of 20 μg protein was separated by 10% SDS-PAGE, and then the protein was transferred to a PVDF membrane. The membrane was blocked with 5% skim milk for 1 h, and the corresponding primary antibody was incubated at 4 °C overnight. After washing the membrane three times with TBST, the bands were incubated with the corresponding secondary antibodies at room temperature for 1 h. After cleaning the membrane with TBST 3 times, the darkroom was developed with ECL luminescence. Using GAPDH as an internal reference, the protein bands were analyzed by ImageJ 1.8.0.

A549 cells [6] = assay: Cell morphology by inverted microscope; format: cell-based, human; settings: 5 μmol/L, 24 h
Experimental: The cells were inoculated in a 6-well plate, and about 1 × 10^6 A549 cells in the logarithmic growth phase were inoculated in each well. After the cells were cultured in a constant temperature incubator for 24 h, the old medium was discarded, and five kinds of piperidone monocarbonyl curcumin analogue solution (5, 10, and 20 μmol/L), curcumin (10, 20, and 40 μmol/L), and 0.9% DMSO were added as the blank control group for 24 h, and then the cell morphology was observed by inverted microscope (200×).

AKT (protein kinase B) = assay: Western blot, AKT level in A549 cells; format: cell-based, human; settings: 10, 5, 2.5 μmol/L, 24 h
Experimental: as §2

| Molecule | Inhibition of A549 cell growth (CCK-8) (A549 cells [1]) | Cell migration rate vs blank control (0.9% DMSO) (A549 cells [2]) | IC50 (Hela cells) [µM] | IC50 (A549 cells [3]; n = 3) [µM] | IC50 (A549 cells [3]; n = 3, listed as benzaldehyde) [µM] | IC50 (HepG2 cells) [µM] | IC50 (MCF-7 cells) [µM] | IC50 (L02 cells) [µM] | Apoptosis-inducing effect on A549 cells (A549 cells [4]) | ERK protein level vs control group [5] | Cell morphology (A549 cells [6]) | Expression level of AKT protein vs control group (AKT (protein kinase B)) |
| --- | --- | --- | --- | --- | --- | --- | --- | --- | --- | --- | --- | --- |
| 3,5-Dibenzylidene-4-piperidone [Benzaldehyde] | weak at low concentrations | no statistical difference | 12.4 ± 2.91 | 4.66 ± 2.39 | < 5 | 10.3 ± 1.88 | 5.88 ± 1.44 | 52.4 ± 1.89 |  |  |  |  |
| O=C1C(=Cc2cc(Cl)ccc2Cl)CNCC1=Cc1cc(Cl)ccc1Cl [2,5-2Cl] |  | no statistical difference | 6.62 ± 2.1 | 2.87 ± 2.09 |  | 9.66 ± 1.09 | 4.72 ± 1.48 | 48.6 ± 3.59 | strongest | significantly lower | most of the cells became round and loose | most obvious |
